# Reference: patent US10570129B2 (Zoetis Services LLC, priority 2015, dated 2020)
# Legend:
# D. immitis microfilariae = experiment: Dirofilaria immitis, microfilariae (DiMF) in vitro motility assay; assay type: cell-based; conditions: for minimal effective concentration: Dirofilaria immitis, 72 h, read-out: DiMF minimally effective dose (MEC)
# Haemonchus contortus L3 = experiment: microbe, parasite or virus in culture; assay type: cell-based; conditions: for minimal effective concentration: Haemonchus contortus, 96 h, read-out: HcL3 Minimal Effective Concentration (MEC)
Compound,minimal effective concentration (D. immitis microfilariae),minimal effective concentration (Haemonchus contortus L3),DiMF minimally effective dose (MEC) (D. immitis microfilariae),HcL3 Minimal Effective Concentration (MEC) (Haemonchus contortus L3)
"N#Cc1ccc2c(c1)c1c(n2C(=O)NCc2ccnc(F)c2)CCN(C/C=C/c2cccc(Cl)c2F)C1 [Example 118, (E)-2-(3-(3-chloro-2-fluorophenyl)allyl)-8-cyano-N-((2-fluoropyridin-4-yl)methyl)-1,2,3,4-tetrahydro-5H-pyrido[4,3-b]indole-5-carboxamide]",5.7 µM,1.8 µM,–,–
"COc1cc(CNC(=O)n2c3c(c4ccc(C#N)cc42)CN(C/C=C/c2ccc(Cl)c(F)c2)CC3)ccn1 [Example 59, (E)-2-(3-(4-chloro-3-fluorophenyl)allyl)-7-cyano-N-((2-methoxypyridin-4-yl)methyl)-1,2,3,4-tetrahydro-5H-pyrido[4,3-b]indole-5-carboxamide]",10 µM,7.7 µM,–,–
"N#Cc1ccc(/C=C/CN2CCc3c(c4ccc(OC(F)(F)F)cc4n3C(=O)NCc3ccnc(Cl)c3)C2)cc1F [Example 345, (E)-N-((2-chloropyridin-4-yl)methyl)-2-(3-(4-cyano-3-fluorophenyl)allyl)-7-(trifluoromethoxy)-1,2,3,4-tetrahydro-5H-pyrido[4,3-b]indole-5-carboxamide]",18.2 µM,0.5 µM,–,–
"O=C(NCc1ccnc(Cl)c1)n1c2c(c3cc(OC(F)(F)F)c(Br)cc31)CN(C/C=C/c1ccc(Cl)cc1)CC2 [Example 497, (E)-7-bromo-2-(3-(4-chlorophenyl)allyl)-N-((2-chloropyridin-4-yl)methyl)-8-(trifluoromethoxy)-1,2,3,4-tetrahydro-5H-pyrido[4,3-b]indole-5-carboxamide]",5.7 µM,1 µM,–,–
"O=C(NCc1ccnc(Cl)c1)n1c2c(c3cccc(Cl)c31)CN(C/C=C/c1ccc(C(F)(F)F)cc1)CC2 [Example 272, (E)-6-chloro-N-((2-chloropyridin-4-yl)methyl)-2-(3-(4-(trifluoromethyl)-phenyl)allyl)-1,2,3,4-tetrahydro-5H-pyrido[4,3-b]indole-5-carboxamide]",10 µM,> 100 µM,–,–
"O=C(NCc1ccnc(Cl)c1)n1c2c(c3c(C(F)(F)F)cccc31)CN(C/C=C/c1ccc(F)cc1)CC2 [Example 161, (E)-N-((2-chloropyridin-4-yl)methyl)-2-(3-(4-fluorophenyl)allyl)-9-(trifluoromethyl)-1,2,3,4-tetrahydro-5H-pyrido[4,3-b]indole-5-carboxamide]",10 µM,2.1 µM,–,–
"N#Cc1ccc2c(c1)c1c(n2C(=O)NCc2ccnc(Cl)c2)CCN(C/C=C/c2ccc(Br)cc2F)C1 [Example 73, (E)-2-(3-(4-bromo-2-fluorophenyl)allyl)-N-((2-chloropyridin-4-yl)methyl)-8-cyano-1,2,3,4-tetrahydro-5H-pyrido[4,3-b]indole-5-carboxamide]",> 100 µM,0.1 µM,–,–
"O=C(NCc1ccnc(F)c1)n1c2c(c3cc(-c4ccc(Cl)cc4)ccc31)CN(C/C=C/c1ccc(Cl)cc1)CC2 [Example 461, (E)-8-(4-chlorophenyl)-2-(3-(4-chlorophenyl)allyl)-N-((2-fluoropyridin-4-yl)methyl)-1,2,3,4-tetrahydro-5H-pyrido[4,3-b]indole-5-carboxamide]",> 100 µM,33 µM,–,–
"N#Cc1ccc2c3c(n(C(=O)NCc4ccnc(F)c4)c2c1)CCN(C/C=C/c1ccc(Cl)cc1F)C3 [Example 52, (E)-2-(3-(4-chloro-2-fluorophenyl)allyl)-7-cyano-N-((2-fluoropyridin-4-yl)methyl)-1,2,3,4-tetrahydro-5H-pyrido[4,3-b]indole-5-carboxamide]",10 µM,5.7 µM,–,–
"COc1cc(CNC(=O)n2c3c(c4cc(C#N)ccc42)CN(C/C=C/c2ccc(Br)cc2F)CC3)ccn1 [Example 66, (E)-2-(3-(4-bromo-2-fluorophenyl)allyl)-8-cyano-N-((2-methoxypyridin-4-yl)methyl)-1,2,3,4-tetrahydro-5H-pyrido[4,3-b]indole-5-carboxamide]",> 100 µM,–,–,–
"CS(=O)(=O)c1ccc2c(c1)c1c(n2C(=O)NCc2ccnc(Cl)c2)CCN(C/C=C/c2ccc(Cl)cc2)C1 [Example 457, (E)-2-(3-(4-chlorophenyl)allyl)-N-((2-chloropyridin-4-yl)methyl)-8-(methylsulfonyl)-1,2,3,4-tetrahydro-5H-pyrido[4,3-b]indole-5-carboxamide]",10 µM,1 µM,–,–
"O=C(NCc1cnc(Cl)s1)n1c2c(c3cc(Br)ccc31)CN(C/C=C/c1ccc(Cl)cc1)CC2 [Example 193, (E)-8-bromo-2-(3-(4-chlorophenyl)allyl)-N-((2-chlorothiazol-5-yl)methyl)-1,2,3,4-tetrahydro-5H-pyrido[4,3-b]indole-5-carboxamide]",75.8 µM,1 µM,–,–
"O=C(NCc1cnc(Cl)s1)n1c2c(c3cccc(Cl)c31)CN(C/C=C/c1ccc(Cl)cc1)CC2 [Example 273, (E)-6-chloro-2-(3-(4-chlorophenyl)allyl)-N-((2-chlorothiazol-5-yl)methyl)-1,2,3,4-tetrahydro-5H-pyrido[4,3-b]indole-5-carboxamide]",18.2 µM,> 100 µM,–,–
"O=C(NCc1ccnc(Cl)c1)n1c2c(c3ccc(OC(F)(F)F)cc31)CN(C/C=C/c1ccc(Br)cc1F)CC2 [Example 338, (E)-2-(3-(4-bromo-2-fluorophenyl)allyl)-N-((2-chloropyridin-4-yl)methyl)-7-(trifluoromethoxy)-1,2,3,4-tetrahydro-5H-pyrido[4,3-b]indole-5-carboxamide]",10 µM,0.3 µM,–,–
"O=C(NCc1ccnc(Cl)c1)n1c2c(c3ccc(Br)cc31)CN(C/C=C/c1ccc(F)c(F)c1)CC2 [Example 440, (E)-7-bromo-N-((2-chloropyridin-4-yl)methyl)-2-(3-(3,4-difluorophenyl)allyl)-1,2,3,4-tetrahydro-5H-pyrido[4,3-b]indole-5-carboxamide]",10 µM,1.8 µM,–,–
"O=C(NCc1ccnc(F)c1)n1c2c(c3cc(C(F)(F)F)ccc31)CN(C/C=C/c1ccc(Cl)c(Cl)c1)CC2 [Example 422, (E)-2-(3-(3,4-dichlorophenyl)allyl)-N-((2-fluoropyridin-4-yl)methyl)-8-(trifluoromethyl)-1,2,3,4-tetrahydro-5H-pyrido[4,3-b]indole-5-carboxamide]",18.2 µM,10 µM,–,–
"O=C(NCc1ccnc(Cl)c1)N1c2ccc(Cl)cc2C2CN(C/C=C/c3ccc(Cl)cc3)CCC21 (stereo not shown) [Example 516, (E)-8-chloro-2-(3-(4-chlorophenyl)allyl)-N-((2-chloropyridin-4-yl)methyl)-1,2,3,4,4a,9b-hexahydro-5H-pyrido[4,3-b]indole-5-carboxamide]",–,–,10.0 µM,0.3 µM
"O=C(NCc1ccnc(Cl)c1)n1c2c(c3cc(Cl)ccc31)CN(C/C=C/c1ccc(OC(F)(F)F)cc1)CC2 [Example 245, (E)-8-chloro-N-((2-chloropyridin-4-yl)methyl)-2-(3-(4-(trifluoromethoxy)-phenyl)allyl)-1,2,3,4-tetrahydro-5H-pyrido[4,3-b]indole-5-carboxamide]",11.9 µM,3.3 µM,–,–
"N#Cc1ccc(/C=C/CN2CCc3c(c4cc(C#N)ccc4n3C(=O)NCc3ccnc(Cl)c3)C2)cc1 [Example 91, (E)-N-((2-chloropyridin-4-yl)methyl)-8-cyano-2-(3-(4-cyanophenyl)allyl)-1,2,3,4-tetrahydro-5H-pyrido[4,3-b]indole-5-carboxamide]",13.5 µM,0.4 µM,–,–
"O=C(NCc1ccnc(F)c1)n1c2c(c3cc(Br)ccc31)CN(C/C=C/c1ccc(F)c(Cl)c1)CC2 [Example 190, (E)-8-bromo-2-(3-(3-chloro-4-fluorophenyl)allyl)-N-((2-fluoropyridin-4-yl)methyl)-1,2,3,4-tetrahydro-5H-pyrido[4,3-b]indole-5-carboxamide]",5.7 µM,1 µM,–,–
"O=C(NCc1ccnc(Cl)c1)n1c2c(c3ccc(OC(F)(F)F)cc31)CN(C/C=C/c1c(F)cc(Cl)cc1F)CC2 [Example 339, (E)-2-(3-(4-chloro-2,6-difluorophenyl)allyl)-N-((2-chloropyridin-4-yl)-methyl)-7-(trifluoromethoxy)-1,2,3,4-tetrahydro-5H-pyrido[4,3-b]indole-5-carboxamide]",0.5 µM,0.5 µM,–,–
"N#Cc1ccc(/C=C/CN2CCc3c(c4cc(Br)ccc4n3C(=O)NCc3ccnc(Cl)c3)C2)cc1F [Example 180, (E)-8-bromo-N-((2-chloropyridin-4-yl)methyl)-2-(3-(4-cyano-3-fluorophenyl)allyl)-1,2,3,4-tetrahydro-5H-pyrido[4,3-b]indole-5-carboxamide]",> 100 µM,0.5 µM,–,–
"COc1cc(CNC(=O)n2c3c(c4cc(C#N)ccc42)CN(C/C=C/c2ccc(Cl)cc2Cl)CC3)ccn1 [Example 65, (E)-8-cyano-2-(3-(2,4-dichlorophenyl)allyl)-N-((2-methoxypyridin-4-yl)methyl)-1,2,3,4-tetrahydro-5H-pyrido[4,3-b]indole-5-carboxamide]",> 100 µM,–,–,–
"COc1cc(CNC(=O)n2c3c(c4cc(C#N)ccc42)CN(C/C=C/c2ccc(F)cc2F)CC3)ccn1 [Example 67, (E)-8-cyano-2-(3-(2,4-difluorophenyl)allyl)-N-((2-methoxypyridin-4-yl)methyl)-1,2,3,4-tetrahydro-5H-pyrido[4,3-b]indole-5-carboxamide]",0.01 µM,–,–,–
"COc1cc(CNC(=O)n2c3c(c4cc(C#N)ccc42)CN(C/C=C/c2cc(F)c(F)c(F)c2)CC3)ccn1 [Example 63, (E)-8-cyano-N-((2-methoxypyridin-4-yl)methyl)-2-(3-(3,4,5-trifluorophenyl)allyl)-1,2,3,4-tetrahydro-5H-pyrido[4,3-b]indole-5-carboxamide]",0.3 µM,–,–,–
